Data from patent US20110152313A1 (MACQUARIE UNIVERSITY, priority 2008, published 2011).

Key:
Assay in all cases: kinase binding screen (kinase-tagged T7 phage, qPCR), % Ctrl
CDKL5 = target: T1, CDKL5 (Homo sapiens, UniProt O76039)
T1 sequence (O76039 1-960): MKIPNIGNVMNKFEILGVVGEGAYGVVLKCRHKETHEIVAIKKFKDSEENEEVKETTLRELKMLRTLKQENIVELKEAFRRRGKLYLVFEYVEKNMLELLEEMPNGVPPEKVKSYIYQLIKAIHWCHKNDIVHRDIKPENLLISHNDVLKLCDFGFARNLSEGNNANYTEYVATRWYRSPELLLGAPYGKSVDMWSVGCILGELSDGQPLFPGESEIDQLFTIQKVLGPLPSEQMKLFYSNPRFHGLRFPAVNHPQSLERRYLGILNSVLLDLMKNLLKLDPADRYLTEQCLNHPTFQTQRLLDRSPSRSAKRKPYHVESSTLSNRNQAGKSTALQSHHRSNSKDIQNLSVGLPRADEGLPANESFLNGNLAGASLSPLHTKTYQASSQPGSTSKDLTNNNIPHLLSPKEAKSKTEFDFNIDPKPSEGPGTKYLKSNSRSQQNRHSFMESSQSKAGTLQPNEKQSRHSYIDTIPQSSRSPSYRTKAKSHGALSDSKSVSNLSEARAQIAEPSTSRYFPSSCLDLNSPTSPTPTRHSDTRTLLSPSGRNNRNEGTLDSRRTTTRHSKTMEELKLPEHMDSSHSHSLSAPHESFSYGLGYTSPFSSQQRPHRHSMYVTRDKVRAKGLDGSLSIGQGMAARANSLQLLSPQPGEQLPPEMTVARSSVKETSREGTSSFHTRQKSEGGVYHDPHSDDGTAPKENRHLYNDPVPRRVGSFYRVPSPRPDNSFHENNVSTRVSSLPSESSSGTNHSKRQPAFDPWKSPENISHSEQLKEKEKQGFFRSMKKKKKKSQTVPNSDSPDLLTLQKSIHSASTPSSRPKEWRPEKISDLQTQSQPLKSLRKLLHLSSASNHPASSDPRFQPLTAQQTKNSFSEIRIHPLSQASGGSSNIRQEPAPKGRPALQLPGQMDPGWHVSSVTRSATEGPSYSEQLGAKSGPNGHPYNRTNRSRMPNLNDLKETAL
Description: (§1) Percentage kinase inhibition at a set concentration was performed by methods well known in the prior art (Fabian, M. A. et al. Nat. Biotechnol. 2005, 23, 329; Karaman et al. (2008) Nat. Biotechnol. […], 26, 127). Briefly, kinase-tagged T7 phage strains were grown in parallel in 24-well blocks in an E. coli host derived from the BL21 strain. E. coli were grown to log-phase and infected with T7 phage from a frozen stock (multiplicity of infection=0.4) and incubated with shaking at 32° C. until lysis (90-150 minutes). The lysates were centrifuged (6,000×g) and filtered (0.2 μm) to remove cell debris. […] The liganded beads were blocked with excess biotin and washed with blocking buffer (SeaBlock (Pierce); 1% BSA, 0.05% Tween 20, 1 mM DTT) to remove unbound ligand and to reduce non-specific phage binding. […] Test compounds were prepared as 40× stocks in 100% DMSO and directly diluted into the assay. All reactions were performed in polypropylene 384-well plates in a final volume of 0.04 mL. […] The kinase concentration in the eluates was measured by qPCR.

CAMKK2 = CAMKK2 (Homo sapiens, UniProt Q96RR4)
Description: as §1

[1] = target: TYK2(JH2domain-pseudokinase) (Homo sapiens, UniProt P29597)
Description: as §1

IRAK3 = target: T2, IRAK3 (Homo sapiens, UniProt Q9Y616)
T2 sequence (Q9Y616 1-596): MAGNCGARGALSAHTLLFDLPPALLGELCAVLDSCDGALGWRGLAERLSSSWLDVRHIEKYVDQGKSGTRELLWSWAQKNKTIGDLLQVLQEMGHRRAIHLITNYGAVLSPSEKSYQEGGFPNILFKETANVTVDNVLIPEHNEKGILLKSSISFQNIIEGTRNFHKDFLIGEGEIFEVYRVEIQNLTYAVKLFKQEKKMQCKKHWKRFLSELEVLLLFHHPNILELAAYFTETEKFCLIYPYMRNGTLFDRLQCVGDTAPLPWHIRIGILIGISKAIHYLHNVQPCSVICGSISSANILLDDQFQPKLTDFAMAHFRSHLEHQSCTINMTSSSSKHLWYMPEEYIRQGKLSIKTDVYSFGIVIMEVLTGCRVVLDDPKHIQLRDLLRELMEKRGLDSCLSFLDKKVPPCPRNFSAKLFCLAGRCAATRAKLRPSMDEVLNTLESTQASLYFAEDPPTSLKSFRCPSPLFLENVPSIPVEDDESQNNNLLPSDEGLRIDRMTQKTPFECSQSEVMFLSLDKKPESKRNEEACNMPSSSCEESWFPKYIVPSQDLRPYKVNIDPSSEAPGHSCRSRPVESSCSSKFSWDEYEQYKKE
Description: as §1

DYRK2 = target: T3, DYRK2 (Homo sapiens, UniProt Q92630)
T3 sequence (Q92630 1-601): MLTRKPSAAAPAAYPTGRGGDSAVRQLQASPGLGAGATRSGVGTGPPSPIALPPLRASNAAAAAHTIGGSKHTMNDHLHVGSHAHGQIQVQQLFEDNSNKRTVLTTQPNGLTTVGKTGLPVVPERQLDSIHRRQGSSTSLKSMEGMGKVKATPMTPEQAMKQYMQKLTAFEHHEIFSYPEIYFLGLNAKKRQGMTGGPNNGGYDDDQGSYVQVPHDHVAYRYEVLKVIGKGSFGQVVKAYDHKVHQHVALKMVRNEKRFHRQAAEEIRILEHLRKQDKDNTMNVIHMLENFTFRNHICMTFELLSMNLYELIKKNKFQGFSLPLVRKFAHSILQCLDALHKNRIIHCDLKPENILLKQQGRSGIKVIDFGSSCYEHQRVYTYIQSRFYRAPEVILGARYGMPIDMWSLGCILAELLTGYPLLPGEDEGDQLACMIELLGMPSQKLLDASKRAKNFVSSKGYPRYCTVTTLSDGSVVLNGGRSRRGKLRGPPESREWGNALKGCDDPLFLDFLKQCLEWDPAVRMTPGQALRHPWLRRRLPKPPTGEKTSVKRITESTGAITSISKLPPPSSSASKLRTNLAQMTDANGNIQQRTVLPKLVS
Description: as §1

CAMKK2, sequence (Q96RR4 whole entry): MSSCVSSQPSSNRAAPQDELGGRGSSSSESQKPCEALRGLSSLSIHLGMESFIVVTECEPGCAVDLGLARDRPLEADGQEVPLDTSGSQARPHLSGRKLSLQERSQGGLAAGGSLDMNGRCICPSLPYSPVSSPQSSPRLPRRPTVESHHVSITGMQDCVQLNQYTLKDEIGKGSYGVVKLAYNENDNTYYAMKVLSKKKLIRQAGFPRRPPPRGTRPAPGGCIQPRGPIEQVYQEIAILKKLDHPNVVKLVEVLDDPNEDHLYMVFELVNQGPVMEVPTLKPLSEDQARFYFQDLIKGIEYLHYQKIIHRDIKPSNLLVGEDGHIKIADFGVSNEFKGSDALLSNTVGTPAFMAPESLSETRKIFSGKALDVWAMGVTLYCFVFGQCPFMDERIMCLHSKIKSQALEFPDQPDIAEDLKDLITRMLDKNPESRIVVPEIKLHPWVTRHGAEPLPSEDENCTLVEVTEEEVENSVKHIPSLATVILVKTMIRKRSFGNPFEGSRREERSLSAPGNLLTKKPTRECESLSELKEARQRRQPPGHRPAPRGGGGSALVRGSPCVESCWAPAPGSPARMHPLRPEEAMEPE
TYK2(JH2domain-pseudokinase), sequence (P29597 589-875 limits assumed, species assumed): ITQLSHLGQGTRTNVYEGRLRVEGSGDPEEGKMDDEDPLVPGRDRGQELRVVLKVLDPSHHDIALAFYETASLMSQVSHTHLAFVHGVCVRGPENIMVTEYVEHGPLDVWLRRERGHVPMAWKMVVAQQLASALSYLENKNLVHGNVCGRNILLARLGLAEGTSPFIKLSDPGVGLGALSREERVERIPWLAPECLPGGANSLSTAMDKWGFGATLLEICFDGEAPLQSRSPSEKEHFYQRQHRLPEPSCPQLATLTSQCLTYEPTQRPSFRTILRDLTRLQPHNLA

| SMILES | remaining activity at 1 µM (CDKL5) | remaining activity at 1 µM (CAMKK2) | remaining activity at 1 µM [1] | remaining activity at 1 µM (IRAK3) | remaining activity at 1 µM (DYRK2) | remaining activity at 10 µM (CDKL5; 10 μM) | remaining activity at 10 µM (CAMKK2; 10 μM) | remaining activity at 10 µM ([1]; 10 μM) | remaining activity at 10 µM (IRAK3; 10 μM) | remaining activity at 10 µM (DYRK2; 10 μM) |
| --- | --- | --- | --- | --- | --- | --- | --- | --- | --- | --- |
| Nc1nc2c(-c3cnc4ccccc4c3)nccc2[nH]1 [drawing 36, 4-(quinolin-3-yl)-1H-imidazo[4,5-c]pyridin-2-amine] | 54% | 100% | 25% | 56% | 56% | – | – | – | – | – |
| Nc1nc2c(-c3ccccn3)nccc2[nH]1 [drawing 35, 4-(pyrid-2-yl)-1H-imidazo[4,5-c]pyridin-2-amine] | 50% | 35% | 41% | 88% | 41% | – | – | – | – | – |
| Nc1nc2c(-c3cc(Br)c(Br)[nH]3)nccc2[nH]1 [Ageladine A, ageladine A, reference compound] | 54% | 90% | 23% | 85% | 35% | 40% | 83% | 2% | 51% | 4.4% |
